Source: ChEMBL document CHEMBL3813592, “Discovery of Novel Tricyclic Heterocycles as Potent and Selective DPP-4 Inhibitors for the Treatment of Type 2 Diabetes” (ACS Med Chem Lett, 2016)
The source made the active and inactive calls. The calls are words filed in the database; no cut-off is given here.

Columns and labels:
Mus musculus [1] = test: Antidiabetic activity in C57BL/6N mouse assessed as reduction in blood glucose AUC at 3 mg/kg, po administered for 60 mins followed by dextrose challenge by OGTT; format: functional
[2] = Plasma concentration in C57BL/6N mouse at 0.3 mg/kg, po administered for 60 mins followed by dextrose challenge during OGTT method; format: ADME, organism-based
[3] = Intrinsic clearance in rat hepatocytes assessed per 10^6 cells at 1 uM after 30 to 120 mins by LC-MS/MS analysis; format: ADME, cell-based, Hepatocyte; settings: read-out: CLH
Mus musculus [4] = test: Ex vivo inhibition of DPP4 in C57BL/6N mouse blood at 3 to 10 mg/kg, po measured after 2 to 6 hrs; format: functional
Mus musculus [5] = test: Antidiabetic activity in C57BL/6N mouse assessed as reduction in blood glucose AUC at 10 mg/kg, po administered for 60 mins followed by dextrose challenge by OGTT; format: functional; parameters: scale not given: the % may be the effect or the level left
Mus musculus [6] = test: Antidiabetic activity in C57BL/6N mouse assessed as reduction in blood glucose AUC at 0.3 mg/kg, po administered for 60 mins followed by dextrose challenge by OGTT; format: functional; parameters: scale not given: the % may be the effect or the level left
[7] = Plasma concentration in C57BL/6N mouse at 3 mg/kg, po administered for 60 mins followed by dextrose challenge during OGTT method; format: ADME, organism-based
[8] = Intrinsic clearance in dog hepatocytes assessed per 10^6 cells at 1 uM after 30 to 120 mins by LC-MS/MS analysis; format: ADME, cell-based, Canis lupus familiaris, Hepatocyte; settings: read-out: CLH
Mus musculus [9] = test: Antidiabetic activity in po dosed C57BL/6N mouse assessed as reduction in blood glucose AUC after 60 mins followed by dextrose challenge by OGTT; format: functional, organism-based
Mus musculus [10] = test: Ex vivo inhibition of DPP4 in C57BL/6N mouse blood at 1 to 10 mg/kg, po measured after 24 hrs; format: functional, organism-based
[11] = Plasma concentration in C57BL/6N mouse at 10 mg/kg, po administered for 60 mins followed by dextrose challenge during OGTT method; format: ADME, organism-based
[12] = Plasma concentration in C57BL/6N mouse at 1 mg/kg, po administered for 60 mins followed by dextrose challenge during OGTT method; format: ADME, organism-based
Mus musculus [13] = test: Antidiabetic activity in C57BL/6N mouse assessed as reduction in blood glucose AUC at 1 mg/kg, po administered for 60 mins followed by dextrose challenge by OGTT; format: functional; parameters: scale not given: the % may be the effect or the level left
[14] = Intrinsic clearance in cynomolgus monkey hepatocytes assessed per 10^6 cells at 1 uM after 30 to 120 mins by LC-MS/MS analysis; format: ADME, cell-based, Macaca fascicularis, Hepatocyte; settings: read-out: CLH
[15] = Intrinsic clearance in human hepatocytes assessed per 10^6 cells at 1 uM after 30 to 120 mins by LC-MS/MS analysis; format: ADME, cell-based, Hepatocyte; settings: read-out: CLH

SMILES | Activity (Mus musculus [1]) | concentration at 1 h [2] | hepatocyte CLint at 1 µM [3] | inhibition (INH) (Mus musculus [4]) | Activity (Mus musculus [5]) | Activity (Mus musculus [6]) | concentration at 1 h [7] | hepatocyte CLint at 1 µM [8] | Activity (Mus musculus [9]) | inhibition (Mus musculus [10]) | concentration at 1 h [11] | concentration at 1 h [12] | Activity (Mus musculus [13]) | hepatocyte CLint at 1 µM [14] | hepatocyte CLint at 1 µM [15]
Cn1c(=O)cc(N2CCC[C@@H](N)C2)n(Cc2ccccc2C#N)c1=O | Active | – | – | – | – | – | – | – | – | – | – | – | – | – | –
CN1C(=O)Cn2c1nc1nc(N3CCC[C@@H](N)C3)n(Cc3cc(F)ccc3C#N)c1c2=O | 64% | 2 nM | 0.3 µL/min/1e6 cells | >80% | 63% | 38% | 70 nM | < 1 µL/min/1e6 cells | Dose-dependent effect | inactive | 235 nM | 10 nM | 52% | < 1 µL/min/1e6 cells | 0.1 µL/min/1e6 cells
